Drawing on patent publication US12612412B2, “Antiviral heterocyclic compounds” (Enanta Pharmaceuticals, Inc., priority 2021, dated 2026), this text covers EC50 for 52 molecules.

One test relates to genotype A, "Long" strain RSV. Put plainly: RSV-A assay (CPE protection in Hep-2 cells, ATPlite readout). As to conditions: human respiratory syncytial virus, RSV-A Long strain, MOI 0.1, CPE protection, read-out: Human RSV-A (“Long”) EC50. In kind it is cell-based, Human respiratory syncytial virus (HRSV). Summed up: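 Hep-2, 8,000 cells/well, MOI 0.1 (PFU- or TCID50-based); 2-fold compound series, duplicates; 5 d incubation; ATPlite luminescence readout; EC50.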
Consider `COc1cc(C(=O)NC[C@](O)(c2cc3c(c(-c4cccc(Cl)c4Cl)n2)OC[C@]3(C)C(N)=O)C2CC2)cc2cn(C3CC3)nc12` [Example 1286], for which the EC50 was less than 200 nM.
For the molecule `COc1cc(C(=O)NC[C@](O)(c2cc3c(c(-c4ccc5c(c4)OC(F)(F)O5)n2)OC[C@]3(C)C(N)=O)C2CC2)cc2cc(Br)c(C)nc12` [Example 1130], the EC50 is less than 200 nM.
On to `COc1cc(C(=O)NC[C@](O)(c2cc3c(c(-c4ccc(F)c(Cl)c4)n2)OC[C@@]3(CF)C(N)=O)C(F)(F)F)ccc1OC1CC1` [Example 1048], for which the EC50 was more than 200 nM.
The same measure, in the same setting: the result for `COc1cc(C(=O)NC[C@](O)(c2cc3c(c(-c4ccc(F)cc4)n2)OC[C@]3(C(N)=O)C(F)F)C(F)(F)F)cc2cn(C3CC3)nc12` [Example 998] reads less than 200 nM; that for `COc1cc(C(=O)NC[C@](O)(c2cc3c(c(-c4ccc5c(c4)OC(F)(F)O5)n2)OC[C@]3(C)C(N)=O)C(F)(F)F)cc2cc(C3CC3)nnc12` [Example 1111], less than 200 nM.
Same read-out and setting: the result for `Cc1cc2cc(C(=O)NC[C@](O)(c3cc4c(c(-c5ccc(F)cc5)n3)OC[C@]4(C)C(N)=O)C(F)(F)F)cc(OC3CC3)c2nc1Cl` [Example 1075] reads less than 200 nM; that for `COc1cc(C(=O)NC[C@@](O)(c2cc3c(c(-c4cccc(Br)c4F)n2)OC[C@]3(C)C(N)=O)C(F)(F)F)cc2cn(C3CC3)nc12` [Example 1224], less than 200 nM.
Still for that read-out and setting: the result for `COc1cc(C(=O)NC[C@](O)(c2cc3c(c(-c4ccc(F)cc4)n2)OC[C@]3(C)C(=O)NCC(F)(F)F)C(F)(F)F)cc2cn(C3CC3)nc12` [Example 1173] reads less than 200 nM; that for `COc1cc(C(=O)NC[C@](O)(c2cc3c(c(-c4cc(F)cc(Cl)c4F)n2)OC[C@]3(C)C(N)=O)C(F)(F)F)cc2cn(C3CC3)nc12` [Example 1242], less than 200 nM.
On to `COc1cc(C(=O)NC[C@](O)(c2nc(-c3ccc(F)c(Cl)c3F)c3c(c2Cl)[C@@](C)(C(N)=O)CO3)C2CC2)cc2cn(C3CC3)nc12` [Example 1217], for which the EC50 is more than 200 nM.
As for `C[C@]1(C(N)=O)COc2c1cc([C@@](O)(CNC(=O)c1cc(OC3CC3)c3nn(C(F)F)cc3c1)C1CC1)nc2-c1cccc(Cl)c1F` [Example 1198], the EC50 was less than 200 nM.
The same measure, in the same setting: the result for `Cc1cc2cc(C(=O)NC[C@](O)(c3cc4c(c(-c5ccc(F)c(Cl)c5F)n3)OC[C@]4(C)C(N)=O)C3CC3)cc(OC3CC3)c2nc1Cl` [Example 1077] reads less than 200 nM; that for `CNC(=O)[C@@]1(C)COc2c1cc([C@](O)(CNC(=O)c1cc(OC)c3nn(C4CC4)cc3c1)C(F)(F)F)nc2-c1ccc(F)c(F)c1Cl` [Example 1201], less than 200 nM.
For the molecule `COc1cc(C(=O)NC[C@](O)(c2cc3c(c(-c4cc(Cl)cc(Cl)c4)n2)OC[C@]3(C)C(N)=O)C2CC2)cc2cn(C3CC3)nc12` [Example 1281], the EC50 is less than 200 nM.
The same measure, in the same setting: the result for `Cc1cc2cc(C(=O)NC[C@](O)(c3cc4c(c(-c5cccc(F)c5Cl)n3)OC[C@]4(C)C(N)=O)C3CC3)cc(OC3CC3)c2nc1Cl` [Example 1078] reads less than 200 nM.
On the same count and under the same terms, the result for `COc1cc(C(=O)NC[C@](O)(c2cc3c(c(-c4ccc(F)cc4)n2)OC[C@]3(C)C(N)=O)C2CC2)cc2cc(Br)c(C)nc12` [Example 1117] reads less than 200 nM.
Still for that read-out and setting: the result for `COc1cc(C(=O)NC[C@](O)(c2cc3c(c(-c4ccc(Cl)cc4Cl)n2)OC[C@]3(C)C(N)=O)C(F)(F)F)cc2cn(C3CC3)nc12` [Example 1254] reads less than 200 nM; that for `COc1cc(C(=O)NC[C@](O)(c2cc3c(c(-c4cc(Cl)c(F)cc4F)n2)OC[C@]3(C)C(N)=O)C2(F)CC2)cc2cc(Br)cnc12` [Example 1113], less than 200 nM.

The same test, now with this note: human respiratory syncytial virus, genotype A “Long” strain RSV, MOI 0.1, CPE protection, read-out: Human RSV-A (“Long”).
On to `C[C@]1(C(N)=O)COc2c1cc([C@@](O)(CNC(=O)c1nccc3[nH]ccc13)C(F)(F)F)nc2-c1ccc(F)cc1` [Example 388], for which the EC50 is more than 200 nM.
The same measure, in the same setting: the result for `C[C@]1(C(N)=O)COc2c1cc([C@@](O)(CNC(=O)c1cc(F)c3[nH]ncc3c1)C(F)(F)F)nc2-c1ccc(F)cc1` [Example 104] reads less than 200 nM; that for `C[C@]1(C(N)=O)COc2c1cc([C@@](O)(CNC(=O)c1ccc3cc(C4CC4)cn3c1)C(F)(F)F)nc2-c1ccc(F)cc1` [Example 185], more than 200 nM; that for `C[C@]1(C(N)=O)COc2c1cc([C@@](O)(CNC(=O)c1cncs1)C(F)(F)F)nc2-c1ccc(F)cc1` [Example 389], more than 200 nM.
Still for that read-out and setting: the result for `C[C@]1(C(N)=O)COc2c1cc([C@@](O)(CNC(=O)c1cn3cc(C(F)(F)F)ccc3n1)C(F)(F)F)nc2-c1ccc(F)cc1` [Example 810] reads more than 200 nM; that for `Cn1cc(C(=O)NC[C@](O)(c2cc3c(c(-c4ccc(F)cc4)n2)OC[C@]3(C)C(N)=O)C(F)(F)F)c2ccccc21` [Example 373], more than 200 nM.
For the molecule `C[C@]1(C(N)=O)COc2c1cc([C@@](O)(CNC(=O)c1cc3cccnc3s1)C(F)(F)F)nc2-c1ccc(F)cc1` [Example 377], the EC50 is more than 200 nM.
Still for that read-out and setting: the result for `Cn1ccc(C(=O)NC[C@](O)(c2cc3c(c(-c4ccc(F)cc4)n2)OC[C@]3(C)C(N)=O)C(F)(F)F)c1` [Example 407] reads more than 200 nM; that for `Cc1nc2c(F)cc(C(=O)NC[C@](O)(c3cc4c(c(-c5ccc(F)cc5)n3)OC[C@]4(C)C(N)=O)C(F)(F)F)cc2s1` [Example 15], less than 200 nM; that for `Cc1ccn2c(C(=O)NC[C@](O)(c3cc4c(c(-c5ccc(F)cc5)n3)OC[C@]4(C)C(N)=O)C(F)(F)F)c(C)nc2c1` [Example 361], more than 200 nM.
Same read-out and setting: the result for `C[C@]1(C(N)=O)COc2c1cc([C@@](O)(CNC(=O)c1ccn3cc(C4CC4)nc3c1)C(F)(F)F)nc2-c1ccc(F)cc1` [Example 33] reads more than 200 nM; that for `Cc1cnc(C(=O)NC[C@](O)(c2cc3c(c(-c4ccc(F)cc4)n2)OC[C@]3(C)C(N)=O)C(F)(F)F)cn1` [Example 390], more than 200 nM.
Turning to `COc1cc(C(=O)NC[C@](O)(c2cc3c(c(-c4ccc(F)cc4)n2)OC[C@]3(C)C(N)=O)C2CC2)cc2cn(C3CC3)nc12` [Example 302], the EC50 was less than 200 nM.
Still for that read-out and setting: the result for `C[C@]1(C(N)=O)COc2c1cc([C@@](O)(CNC(=O)c1sc3ccccc3c1Cl)C(F)(F)F)nc2-c1ccc(F)cc1` [Example 419] reads more than 200 nM; that for `C[C@]1(C(N)=O)COc2c1cc([C@@](O)(CNC(=O)c1c[nH]c3ncc(C(F)(F)F)cc13)C(F)(F)F)nc2-c1ccc(F)cc1` [Example 347], more than 200 nM.
Still for that read-out and setting: the result for `CCn1ncc2cc(C(=O)NC[C@](O)(c3cc4c(c(-c5ccc(F)cc5)n3)OC[C@]4(C)C(N)=O)C(F)(F)F)cc(Cl)c21` [Example 172] reads more than 200 nM.
Turning to `C[C@H](O)CNc1nc2ccc(C(=O)NC[C@](O)(c3cc4c(c(-c5ccc(F)cc5)n3)OC[C@]4(C)C(N)=O)C(F)(F)F)cc2s1` [Example 163], the EC50 was less than 200 nM.
Consider `[2H]C([2H])([2H])NC(=O)Nc1cc(C(=O)NC[C@](O)(c2cc3c(c(-c4ccc(F)cc4)n2)OC[C@]3(C)C(N)=O)C(F)(F)F)cc2ccc(C)nc12` [Example 330], for which the EC50 was more than 200 nM.
On the same count and under the same terms, the result for `C[C@]1(C(N)=O)COc2c1cc([C@@](O)(CNC(=O)c1cc(Cl)c3cnn(C4CC4)c3c1)C(F)(F)F)nc2-c1ccc(F)cc1` [Example 145] reads more than 200 nM.
Same read-out and setting: the result for `COc1cc(C(=O)NC[C@@](O)(c2cc3c(c(-c4ccc(F)c(C)c4)n2)OC[C@]3(C)C(N)=O)C(F)(F)F)cc2cn(C3CC3)nc12` [Example 635] reads more than 200 nM.
Still for that read-out and setting: the result for `C[C@]1(C(N)=O)COc2c1cc([C@@](O)(CNC(=O)c1cnn(-c3ccc(C(F)(F)F)cc3)c1)C(F)(F)F)nc2-c1ccc(F)cc1` [Example 455] reads more than 200 nM; that for `C[C@]1(C(N)=O)COc2c1cc([C@@](O)(CNC(=O)c1cc3ncccc3s1)C(F)(F)F)nc2-c1ccc(F)cc1` [Example 371], more than 200 nM.
For `C[C@]1(C(N)=O)COc2c1cc([C@@](O)(CNC(=O)c1cnc3ccc(F)cn13)C(F)(F)F)nc2-c1ccc(F)cc1` [Example 367], the EC50 is more than 200 nM.
Still for that read-out and setting: the result for `Cc1cc(C(=O)NC[C@](O)(c2cc3c(c(-c4ccc(F)cc4)n2)OC[C@]3(C)C(N)=O)C(F)(F)F)cc2cn[nH]c12` [Example 122] reads less than 200 nM; that for `COC(=O)C12CC(C(=O)NC[C@](O)(c3cc4c(c(-c5ccc(F)cc5)n3)OC[C@]4(C)C(N)=O)C(F)(F)F)(C1)C2` [Example 442], more than 200 nM; that for `CCS(=O)(=O)c1ccc(-c2nc([C@@](O)(CNC(=O)c3cc(F)c4nc(N)sc4c3)C(F)(F)F)cc3c2OC[C@]3(C)C(N)=O)cc1` [Example 311], more than 200 nM.
As for `C[C@]1(C(N)=O)COc2c1cc([C@@](O)(CNC(=O)c1c[nH]c3c(Cl)cccc13)C(F)(F)F)nc2-c1ccc(F)cc1` [Example 350], the EC50 is more than 200 nM.
On the same count and under the same terms, the result for `C[C@@H](O)COc1ccc(C(=O)NC[C@](O)(c2cc3c(c(-c4ccc(F)cc4)n2)OC[C@]3(C(N)=O)C2CC2)C(F)(F)F)cc1OC1CC1` [Example 279] reads more than 200 nM.
Regarding `Cc1nc(C2CC2)sc1C(=O)NC[C@](O)(c1cc2c(c(-c3ccc(F)cc3)n1)OC[C@]2(C)C(N)=O)C(F)(F)F` [Example 462], the EC50 is less than 200 nM.
Take `C[C@]1(C(N)=O)COc2c1cc([C@@](O)(CNC(=O)c1ccoc1)C(F)(F)F)nc2-c1ccc(F)cc1` [Example 363]: the EC50 was more than 200 nM.
The same measure, in the same setting: the result for `C[C@]1(C(N)=O)COc2c1cc([C@@](O)(CNC(=O)c1cccc3nccn13)C(F)(F)F)nc2-c1ccc(F)cc1` [Example 360] reads more than 200 nM; that for `C[C@]1(C(N)=O)COc2c1cc([C@@](O)(CNC(=O)c1cc3ccccn3n1)C(F)(F)F)nc2-c1ccc(F)cc1` [Example 392], more than 200 nM.
For the molecule `COc1cc(C(=O)NC[C@](O)(c2cc3c(c(-c4ccc(F)c(Cl)c4)n2)OC[C@]3(C)C(N)=O)C(F)(F)F)cc2cn(C(F)F)nc12` [Example 46], the EC50 was less than 200 nM.
Consider `Cc1nn(-c2ccccc2)cc1C(=O)NC[C@](O)(c1cc2c(c(-c3ccc(F)cc3)n1)OC[C@]2(C)C(N)=O)C(F)(F)F` [Example 452], for which the EC50 was less than 200 nM.
